From patent US10239869B2, “Sulfonamide compounds as voltage-gated sodium channel modulators” (LUPIN LIMITED, priority 2015, dated 2019)
Read-outs that look alike come from different tables or passages of the source.

Experiments:
Nav 1.5 = Nav 1.5 (Homo sapiens (Human), UniProt Q14524); test: Inhibition of sodium channels, Red Membrane Potential Dye FLIPR assay, veratridine depolarization; assay type: cell-based; conditions: HEK-293 cells overexpressing the channel
Nav 1.7 = Nav 1.7 (Homo sapiens (Human), UniProt Q15858); test: as above; assay type: cell-based; conditions: HEK-293 cells overexpressing the channel
[1] = read-out: Nav1.5 IC50 (bound given in μM)

Sequence of Nav 1.5 (Q14524 whole entry): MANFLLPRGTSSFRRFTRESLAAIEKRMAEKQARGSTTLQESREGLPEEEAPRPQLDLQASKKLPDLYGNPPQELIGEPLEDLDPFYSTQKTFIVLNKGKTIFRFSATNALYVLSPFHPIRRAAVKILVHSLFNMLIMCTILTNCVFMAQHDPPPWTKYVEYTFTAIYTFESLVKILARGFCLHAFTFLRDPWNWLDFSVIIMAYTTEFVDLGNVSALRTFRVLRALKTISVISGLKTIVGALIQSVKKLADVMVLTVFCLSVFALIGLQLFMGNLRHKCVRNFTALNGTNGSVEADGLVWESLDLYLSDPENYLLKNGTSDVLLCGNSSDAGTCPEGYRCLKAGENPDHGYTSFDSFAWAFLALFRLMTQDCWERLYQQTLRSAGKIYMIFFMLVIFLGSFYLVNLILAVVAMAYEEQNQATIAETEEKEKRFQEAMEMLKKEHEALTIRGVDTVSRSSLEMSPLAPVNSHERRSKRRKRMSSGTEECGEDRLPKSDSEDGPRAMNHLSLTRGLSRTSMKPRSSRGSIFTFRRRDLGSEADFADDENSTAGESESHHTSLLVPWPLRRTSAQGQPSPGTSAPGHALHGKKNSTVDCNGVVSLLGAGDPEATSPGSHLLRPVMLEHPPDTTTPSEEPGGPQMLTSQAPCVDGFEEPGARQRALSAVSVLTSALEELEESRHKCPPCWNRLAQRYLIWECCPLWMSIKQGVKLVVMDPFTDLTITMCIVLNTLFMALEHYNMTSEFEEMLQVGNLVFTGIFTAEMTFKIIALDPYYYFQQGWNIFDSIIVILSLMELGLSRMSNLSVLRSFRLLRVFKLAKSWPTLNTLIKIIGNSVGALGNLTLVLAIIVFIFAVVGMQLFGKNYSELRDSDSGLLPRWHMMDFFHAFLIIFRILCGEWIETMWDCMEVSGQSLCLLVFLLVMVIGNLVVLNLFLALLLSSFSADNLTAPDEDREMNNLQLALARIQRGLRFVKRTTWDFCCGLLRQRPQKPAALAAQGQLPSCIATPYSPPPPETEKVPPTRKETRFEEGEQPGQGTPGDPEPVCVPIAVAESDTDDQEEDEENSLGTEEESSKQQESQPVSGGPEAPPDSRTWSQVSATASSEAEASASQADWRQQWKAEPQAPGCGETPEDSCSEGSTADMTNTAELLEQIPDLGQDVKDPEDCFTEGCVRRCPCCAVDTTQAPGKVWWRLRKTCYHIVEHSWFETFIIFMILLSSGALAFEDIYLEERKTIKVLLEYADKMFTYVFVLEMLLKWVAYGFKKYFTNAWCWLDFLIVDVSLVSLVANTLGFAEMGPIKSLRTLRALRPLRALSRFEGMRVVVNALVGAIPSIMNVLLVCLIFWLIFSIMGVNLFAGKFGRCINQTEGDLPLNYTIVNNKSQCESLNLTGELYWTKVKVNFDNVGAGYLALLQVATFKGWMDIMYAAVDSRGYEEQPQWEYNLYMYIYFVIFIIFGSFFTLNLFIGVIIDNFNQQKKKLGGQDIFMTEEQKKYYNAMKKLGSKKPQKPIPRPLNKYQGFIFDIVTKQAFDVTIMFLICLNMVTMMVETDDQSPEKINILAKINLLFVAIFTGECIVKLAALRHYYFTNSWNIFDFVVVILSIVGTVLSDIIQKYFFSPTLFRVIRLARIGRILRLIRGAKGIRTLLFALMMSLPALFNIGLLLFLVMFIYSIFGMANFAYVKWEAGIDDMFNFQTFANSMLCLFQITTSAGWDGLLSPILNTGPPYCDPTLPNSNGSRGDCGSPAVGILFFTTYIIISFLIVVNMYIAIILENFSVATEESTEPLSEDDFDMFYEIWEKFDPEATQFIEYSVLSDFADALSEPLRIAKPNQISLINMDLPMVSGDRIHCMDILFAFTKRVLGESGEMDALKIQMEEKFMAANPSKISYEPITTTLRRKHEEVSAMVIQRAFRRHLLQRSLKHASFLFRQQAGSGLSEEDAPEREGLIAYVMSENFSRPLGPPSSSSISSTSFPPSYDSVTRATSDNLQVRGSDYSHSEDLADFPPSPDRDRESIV
Sequence of Nav 1.7 (Q15858 whole entry): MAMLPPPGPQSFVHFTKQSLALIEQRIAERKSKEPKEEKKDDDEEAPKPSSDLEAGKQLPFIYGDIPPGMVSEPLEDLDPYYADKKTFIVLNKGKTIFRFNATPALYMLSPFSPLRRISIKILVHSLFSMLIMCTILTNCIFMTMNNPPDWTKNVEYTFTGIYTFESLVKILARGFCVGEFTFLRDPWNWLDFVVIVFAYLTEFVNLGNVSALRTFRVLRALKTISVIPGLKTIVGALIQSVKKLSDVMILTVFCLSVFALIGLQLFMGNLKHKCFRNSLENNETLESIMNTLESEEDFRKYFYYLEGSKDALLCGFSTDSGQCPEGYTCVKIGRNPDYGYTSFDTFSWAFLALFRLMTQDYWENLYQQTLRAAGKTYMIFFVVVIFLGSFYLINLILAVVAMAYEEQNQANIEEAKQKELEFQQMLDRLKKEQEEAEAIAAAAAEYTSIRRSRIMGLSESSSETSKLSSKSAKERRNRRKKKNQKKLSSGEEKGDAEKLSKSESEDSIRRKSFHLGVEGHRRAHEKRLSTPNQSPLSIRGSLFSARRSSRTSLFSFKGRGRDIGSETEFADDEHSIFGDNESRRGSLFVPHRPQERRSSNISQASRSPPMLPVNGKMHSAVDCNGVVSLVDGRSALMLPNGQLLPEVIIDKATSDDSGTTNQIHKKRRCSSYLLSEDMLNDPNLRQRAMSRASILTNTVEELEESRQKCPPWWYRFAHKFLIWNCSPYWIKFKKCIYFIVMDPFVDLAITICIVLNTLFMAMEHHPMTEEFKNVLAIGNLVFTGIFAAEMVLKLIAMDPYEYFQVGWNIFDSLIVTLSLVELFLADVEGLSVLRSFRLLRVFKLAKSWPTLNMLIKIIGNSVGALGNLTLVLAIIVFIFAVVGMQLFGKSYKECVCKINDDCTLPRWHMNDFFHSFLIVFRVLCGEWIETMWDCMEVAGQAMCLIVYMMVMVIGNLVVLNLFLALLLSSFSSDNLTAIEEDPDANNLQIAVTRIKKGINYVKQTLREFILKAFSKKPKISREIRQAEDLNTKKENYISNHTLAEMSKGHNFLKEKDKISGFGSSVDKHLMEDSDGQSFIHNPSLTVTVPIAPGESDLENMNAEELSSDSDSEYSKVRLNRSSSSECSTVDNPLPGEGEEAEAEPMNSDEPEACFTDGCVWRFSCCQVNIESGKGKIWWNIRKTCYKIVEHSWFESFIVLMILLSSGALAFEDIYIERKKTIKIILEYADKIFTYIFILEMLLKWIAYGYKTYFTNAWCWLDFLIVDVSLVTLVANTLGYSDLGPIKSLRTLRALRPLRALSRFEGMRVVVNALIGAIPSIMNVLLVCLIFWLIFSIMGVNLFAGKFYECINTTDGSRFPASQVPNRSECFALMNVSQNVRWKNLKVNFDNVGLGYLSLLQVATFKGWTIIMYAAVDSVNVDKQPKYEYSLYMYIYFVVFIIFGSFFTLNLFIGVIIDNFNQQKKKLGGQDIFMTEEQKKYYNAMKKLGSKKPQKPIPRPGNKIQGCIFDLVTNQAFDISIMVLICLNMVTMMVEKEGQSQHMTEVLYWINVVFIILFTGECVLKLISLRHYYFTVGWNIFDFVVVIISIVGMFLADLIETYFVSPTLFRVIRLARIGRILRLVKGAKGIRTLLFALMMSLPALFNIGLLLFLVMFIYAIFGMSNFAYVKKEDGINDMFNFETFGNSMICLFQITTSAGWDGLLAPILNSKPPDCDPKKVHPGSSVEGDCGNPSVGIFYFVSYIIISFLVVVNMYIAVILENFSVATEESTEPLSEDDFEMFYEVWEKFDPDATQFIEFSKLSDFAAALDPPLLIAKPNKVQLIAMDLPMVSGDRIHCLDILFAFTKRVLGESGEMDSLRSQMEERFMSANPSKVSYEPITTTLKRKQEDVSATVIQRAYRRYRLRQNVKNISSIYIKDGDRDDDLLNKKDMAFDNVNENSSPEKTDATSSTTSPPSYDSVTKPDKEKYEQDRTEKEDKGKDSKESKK

Structure (SMILES)	IC50 (Nav 1.7; read-out: Nav1.7 IC50) [µM]	IC50 (Nav 1.5; [1]) [µM]	other results
O=S(=O)(Nc1ncccn1)c1ccc2c(c1)OCCC2c1ccc(C(F)(F)F)cc1O[C@@H]1CCOC1 (stereo partly drawn) [Example-186, (S&R)—N-(pyrimidin-2-yl)-4-(2-(((R)-tetrahydrofuran-3-yl)oxy)-4-(trifluoromethyl)phenyl)chroman-7-sulfonamide]	0.083		Nav1.5 % inhibition @ 10 μM (Nav 1.5): 46%
O=C(O)c1ccc(-c2cc(C(F)(F)F)ccc2[C@H]2CCOc3cc(S(=O)(=O)Nc4ncccn4)ccc32)cc1 [Example-188, (S&R)-2′-(7-(N-(pyrimidin-2-yl)sulfamoyl)chroman-4-yl)-5′-(trifluoromethyl)-[1,1′-biphenyl]-4-carboxylic acid]	0.067	> 10	
O=C(O)c1ccc(-c2cc(C(F)(F)F)ccc2[C@@H]2CCOc3cc(S(=O)(=O)Nc4ncc(F)cn4)ccc32)cc1 [Example-189, (S&R)-2′-(7-(N-(5-fluoropyrimidin-2-yl)sulfamoyl)chroman-4-yl)-5′-(trifluoromethyl)-[1,1′-biphenyl]-4-carboxylic acid]	1.81	> 10	
O=S(=O)(Nc1cccnn1)c1ccc2c(c1)OCC[C@H]2c1ccc(C(F)(F)F)cc1-c1ccc(F)cn1 [Example-199, (S&R)-4-(2-(5-fluoropyridin-2-yl)-4-(trifluoromethyl)phenyl)-N-(pyridazin-3-yl)chroman-7-sulfonamide]	0.355	> 10	
O=S(=O)(Nc1cccnn1)c1ccc2c(c1)OCC[C@@H]2c1ccc(C(F)(F)F)cc1-c1ccc(F)cn1 [Example-200, (S&R)-4-(2-(5-fluoropyridin-2-yl)-4-(trifluoromethyl)phenyl)-N-(pyridazin-3-yl)chroman-7-sulfonamide]	0.0005	> 10	
O=S(=O)(Nc1ncccn1)c1ccc2c(c1)OCC[C@H]2c1ccc(C(F)(F)F)cc1OC1COC1 [Example-216, (R&S)-4-(2-(oxetan-3-yloxy)-4-(trifluoromethyl)phenyl)-N-(pyrimidin-2-yl)chroman-7-sulfonamide]	2.73	> 10	
O=S(=O)(Nc1ncccn1)c1ccc2c(c1)OCC[C@@H]2c1ccc(C(F)(F)F)cc1OC1COC1 [Example-217, (R&S)-4-(2-(oxetan-3-yloxy)-4-(trifluoromethyl)phenyl)-N-(pyrimidin-2-yl)chroman-7-sulfonamide]	0.152		Nav1.5 % inhibition @ 10 μM (Nav 1.5): 50%
O=S(=O)(Nc1ncccn1)c1ccc2c(c1)OCC[C@H]2c1ccc(C(F)(F)F)cc1OCCCF [Example-220, (S&R)-4-(2-(3-fluoropropoxy)-4-(trifluoromethyl)phenyl)-N-(pyrimidin-2-yl)chroman-7-sulfonamide]		> 10	IC50 (Nav 1.7; read-out: Nav1.7 IC50 (bound given in μM)): > 10 µM
O=S(=O)(Nc1ncccn1)c1ccc2c(c1)OCC[C@@H]2c1ccc(C(F)(F)F)cc1OCCCF [Example-221, (S&R)-4-(2-(3-fluoropropoxy)-4-(trifluoromethyl)phenyl)-N-(pyrimidin-2-yl)chroman-7-sulfonamide]	0.042		IC50 (Nav 1.5; read-out: Nav1.5 IC50): 1.47 µM
COc1cc(C(F)(F)F)ccc1[C@@H]1CCOc2cc(S(=O)(=O)Nc3ncccn3)ccc21 [Example-226, (S&R)-4-(2-methoxy-4-(trifluoromethyl)phenyl)-N-(pyrimidin-2-yl)chroman-7-sulfonamide]	2.35		Nav1.5 % inhibition @ 10 μM (Nav 1.5): 86%
COc1cc(C(F)(F)F)ccc1[C@H]1CCOc2cc(S(=O)(=O)Nc3ncccn3)ccc21 [Example-227, (S&R)-4-(2-methoxy-4-(trifluoromethyl)phenyl)-N-(pyrimidin-2-yl)chroman-7-sulfonamide]	0.177	> 10	
COc1cc(C(F)(F)F)ccc1[C@@H]1CCOc2cc(S(=O)(=O)Nc3cccc(F)n3)ccc21 [Example-228, (S&R)—N-(6-fluoropyridin-2-yl)-4-(2-methoxy-4-(trifluoromethyl)phenyl)chroman-7-sulfonamide]		> 10	Nav1.7 inhibition @ 10 μM (Nav 1.7): 55%
COc1cc(C(F)(F)F)ccc1[C@H]1CCOc2cc(S(=O)(=O)Nc3cccc(F)n3)ccc21 [Example-229, (S&R)—N-(6-fluoropyridin-2-yl)-4-(2-methoxy-4-(trifluoromethyl)phenyl)chroman-7-sulfonamide]	0.156		Nav1.5 % inhibition @ 10 μM (Nav 1.5): 42%
O=C1COCCN1c1cc(C(F)(F)F)ccc1[C@@H]1CCOc2cc(S(=O)(=O)Nc3ncccn3)ccc21 [Example-230, (S&R)-4-(2-(3-oxomorpholino)-4-(trifluoromethyl)phenyl)-N-(pyrimidin-2-yl)chroman-7-sulfonamide]	4.42	> 10	
O=C1COCCN1c1cc(C(F)(F)F)ccc1[C@H]1CCOc2cc(S(=O)(=O)Nc3ncccn3)ccc21 [Example-231, (S&R)-4-(2-(3-oxomorpholino)-4-(trifluoromethyl)phenyl)-N-(pyrimidin-2-yl)chroman-7-sulfonamide]	0.559	> 10	
O=S1(=O)CCN(c2cc(C(F)(F)F)ccc2[C@@H]2CCOc3cc(S(=O)(=O)Nc4ncccn4)ccc32)CC1 [Example-232, (S&R)-4-(2-(1,1-dioxidothiomorpholino)-4-(trifluoromethyl)phenyl)-N-(pyrimidin-2-yl)chroman-7-sulfonamide]		> 10	Nav1.7 inhibition @ 10 μM (Nav 1.7): 36%
CCCc1cc(C(F)(F)F)ccc1[C@@H]1CCOc2cc(S(=O)(=O)Nc3ncccn3)ccc21 [Example-238, (S&R)-4-(2-propyl-4-(trifluoromethyl)phenyl)-N-(pyrimidin-2-yl)chroman-7-sulfonamide]	1.76	> 10	
CCCc1cc(C(F)(F)F)ccc1[C@H]1CCOc2cc(S(=O)(=O)Nc3ncccn3)ccc21 [Example-239, (S&R)-4-(2-propyl-4-(trifluoromethyl)phenyl)-N-(pyrimidin-2-yl)chroman-7-sulfonamide]	0.124		Nav1.5 % inhibition @ 10 μM (Nav 1.5): 62%
CCCc1cc(C(F)(F)F)ccc1[C@@H]1CCOc2cc(S(=O)(=O)Nc3ncc(F)cn3)ccc21 [Example-240, (S&R)—N-(5-fluoropyrimidin-2-yl)-4-(2-propyl-4-(trifluoromethyl)phenyl)chroman-7-sulfonamide]	2.74	> 10	
CCCc1cc(C(F)(F)F)ccc1[C@H]1CCOc2cc(S(=O)(=O)Nc3ncc(F)cn3)ccc21 [Example-241, (S&R)—N-(5-fluoropyrimidin-2-yl)-4-(2-propyl-4-(trifluoromethyl)phenyl)chroman-7-sulfonamide]	0.172	> 10	
CCCc1cc(C(F)(F)F)ccc1C1CCOc2cc(S(=O)(=O)Nc3cccnn3)ccc21 (centres unmarked) [Example-242]	1.05		IC50 (Nav 1.5; read-out: Nav1.5 IC50): 3.65 µM
CCCc1cc(C(F)(F)F)ccc1C1CCOc2cc(S(=O)(=O)Nc3cccnn3)ccc21 (centres unmarked) [Example-243]	0.092		IC50 (Nav 1.5; read-out: Nav1.5 IC50): 2.41 µM
CCCc1cc(C(F)(F)F)ccc1[C@@H]1CCOc2cc(S(=O)(=O)Nc3cccc(F)n3)ccc21 [Example-244, (S&R)—N-(6-fluoropyridin-2-yl)-4-(2-propyl-4-(trifluoromethyl)phenyl)chroman-7-sulfonamide]	0.474		Nav1.5 % inhibition @ 10 μM (Nav 1.5): 69%
CCCc1cc(C(F)(F)F)ccc1[C@H]1CCOc2cc(S(=O)(=O)Nc3cccc(F)n3)ccc21 [Example-245, (S&R)—N-(6-fluoropyridin-2-yl)-4-(2-propyl-4-(trifluoromethyl)phenyl)chroman-7-sulfonamide]	0.041		Nav1.5 % inhibition @ 10 μM (Nav 1.5): 75%
O=C(O)c1ccc(-c2cc(C(F)(F)F)ccc2[C@H]2CCOc3cc(S(=O)(=O)Nc4ncc(F)cn4)ccc32)cc1 [compound 190, (S&R)-2′-(7-(N-(5-fluoropyrimidin-2-yl)sulfamoyl)chroman-4-yl)-5′-(trifluoromethyl)-[1,1′-biphenyl]-4-carboxylic acid]	0.257	> 10	
